Laboratory results taken from US9872903B2, “Targeting thymidine kinase photosensitizer and pharmaceutical composition and use for cancer treatment thereof” (ZHEJIANG HISUN PHARMACEUTICAL CO., LTD., priority 2012, dated 2018).

Key:
tumor cells of PC3 line = assay: in vivo therapeutic effect of PDT in tumor-bearing Scid mice; conditions: 665 nm; for curative ratio: photosensitizer 0.5 μmol/kg i.v., light 24 h later, 135 J/cm^2, 75 mW/cm^2, 60 days, 10 mice; for mice with no tumor relapse observed after 60 days: photosensitizer 0.5 μmol/kg, 135 J/cm^2, 75 mW/cm^2
Experimental: Procedure: subcutaneous injection of 3×10^5 tumor cells were performed to the mice, and the cells were allowed to grow so that the diameter can reach 4-5 mm. The hairs at the inoculation site were shaved one day before laser irradiation, and the photosensitizer at various concentrations was intravenously injected to the mice. The mice were not anesthetized, and were limited in a plastic circle 24 h after photosensitizer injection (such as Compound 1 or 3). Subsequently, light treatment was performed after the emission wavelength was tuned to the activation wavelength of the drug using an argon-pumped dye laser monochromes, wherein paclitaxel was additionally injected 8 h before exposure in the combination therapy group. The parameters involved in the therapy included a diameter of 1 cm^2, fluence rate of 75 mW/cm^2 and total light dosage of 135 J/cm^2.
If tumor growth was observed, two perpendicular values L and W (perpendicular to L) were used for the detection, and the volume of tumor can be calculated according to the equation V=(L×W^2)/2. If no evidence for regeneration can be observed 60 days after PDT therapy, the mice can be considered as cured. There were 10 mice in each group at each concentration.
The dosages of HPPH and HPPH-thymidine conjugate used in this experiment were both 0.5 μmol/kg. The single dosage of paclitaxel for additional injection 8 h before exposure was 35 mg/kg. The irradiation parameters included 665 nm, 135 J/cm^2, and 75 mW/cm^2. The curative ratio can be simply calculated based on the equation: number of mice without tumor regeneration×100%/total number of mice. For example, 60 days after administration of Compound 3, i.e., HPPH-thymidine conjugate of the present invention, there were 5 mice without tumor regeneration, and there were totally 10 mice in each group. Accordingly, the curative ratio is 5×100%/10, i.e., 50%.

PC3 cell line [1] = assay: in vitro light-induced cytotoxicity test (PDT, MTT assay); assay type: cell-based, human; conditions: for survival rate: Pharmaceutical 3 0.003 μM
Experimental: In the present invention, the in vitro therapeutic effect of PDT was compared among HPPH, HPPH-thymidine conjugate and HPPH-thymidine conjugate in combination with chemotherapeutic agent paclitaxel in an in vitro light-induced cytotoxicity test.
Procedure: in this Example, a highly metastatic and […] prostatic cancer cell, PC3 cell line, was selected. The PC3 cells were cultured in RPMI 1640 medium supplemented with 10% fetal bovine serum, L-glutamine, penicillin, and streptomycin at 37° C., 5% CO2 and 95% air, and 100% humidity. Subsequently, the PC3 cells were inoculated in the complete medium in a 96-well plate at the density of 5×10^3 cell/well with 6 multiple wells arranged. After cultured at 37° C. overnight, the cells were treated by the photosensitizer or paclitaxel at gradient concentrations in darkness for 24 h. For the treatment using HPPH-thymidine conjugate in combination with paclitaxel, paclitaxel was additionally injected 8 h before exposure, and the concentrations of paclitaxel and the photosensitizer were the same as above.
After the pharmaceutical-containing medium was replaced by fresh medium, the cells were irradiated by light at 665 nm and with a dosage rate of 3.2 mW/cm^2 using an argon-pumped dye laser.
After treated by PDT or paclitaxel alone, the cells were cultured for 48 h at 37° C. in darkness. The phototoxicity was determined by MTT assay (by comparison of the survival rate between the test cells and the untreated cells). The dosage-response survival curve was also plotted. In the Figures, the value was the average of 3 independent experiments, and the error bar stood for standard deviation. In each treatment, the concentration of Compound 3, i.e., HPPH-thymidine conjugate, was 0.06 μM, and the concentration of Compound 1, i.e., HPPH, was 0.06 μM, and the concentration of paclitaxel was 2 nM.

[2] = test system: PC-3 (human prostatic cancer) cell line; assay: in vitro light cytotoxicity test of PDT at 675 nm or 703 nm (MTT); assay type: cell-based
Experimental: The in vitro therapeutic effect of PDT was compared among the following compounds in PC-3 (human prostatic cancer) cell line by in vitro light cytotoxicity test. The procedure was the same as that in Example 4. Briefly, PC3 cells were coated onto the wells of a 96-well plate and adhered for 6-24 h. Subsequently, the cells were treated by the PDT photosensitizer at various concentrations for 24 h, followed by irradiation at 675 nm (dose rate of 3.2 mW/cm^2) or 703 nm (dose rate of 3.2 mW/cm^2) using various high dosages. After 48 h, the cell growth was evaluated by colorimetry, wherein the insoluble formazan product generated in MTT method was dissolved and its concentration was detected at 570 nm through optical density.
The results of the treatment at 675 nm were shown in FIG. 4, wherein PLH-14 was Compound 5 in Example 2, and PLH-13 was Compound 6, i.e., thymidine conjugate of Compound 5, in Example 2. The concentration of both PLH-13 and PLH-14 was 0.1 μM. The results of the treatment at 703 nm were shown in FIG. 5, wherein 277-COOH was Compound 7 in Example 3, and PLH-12 was Compound 8, i.e., thymidine conjugate of Compound 7, in Example 3. The concentration of both 277-COOH and PLH-12 was 0.05 μM. As shown in FIG. 4 and FIG. 5, the in vitro therapeutic effect of PDT using the photosensitizer was enhanced by conjugation of Compound 5, […] Compound 7 with thymidine.

PC3 cell line [3] = assay: morphology change by DAPI staining; assay type: cell-based, human; conditions: paclitaxel pretreatment

In the case of “2-((1′-n-hexyloxy)ethyl)-2-devinyl-pyropheophorbide-α [Compound 1, reference compound]”, the curative ratio (tumor cells of PC3 line) is reported as 30% and the “mice with no tumor relapse observed after 60 days” value (tumor cells of PC3 line) is reported as 3/10.

CCCCCCOC(C)c1c(C)c2cc3nc(c4c5[nH]c(cc6nc(cc1[nH]2)C(C)=C6CC)c(C)c5C(=O)C4)C(CCC(=O)OCC1OC(n2cc(C)c(=O)[nH]c2=O)CC1O)C3C (centres unmarked) [Compound 3, 17^3-thymidylyl-3-((1′-n-hexyloxy)ethyl)-3-devinyl-pyropheophorbide] was tested, and the “light dosage of IC50” value (PC3 cell line [1]; PDT with Compound 3 0.06 μM alone, 665 nm, 3.2 mW/cm^2, MTT after 48 h) was 0.13 J/cm^2, the survival rate (PC3 cell line [1]; light dosage 0.25 J/cm^2, before action of paclitaxel) was 100% and the survival rate (PC3 cell line [1]; light dosage 0.25 J/cm^2, under the action of paclitaxel (0.000704)) was 80%. For the same compound, the “in vitro therapeutic effect of PDT (cell survival vs light dosage, FIG. 3)” value (PC3 cell line [1]; photosensitizer 0.06 μM, paclitaxel 2 nM, 665 nm) was “higher than that using HPPH”, the curative ratio (tumor cells of PC3 line) was 50% and the “mice with no tumor relapse observed after 60 days” value (tumor cells of PC3 line) was 5/10.

CCCCCCOC(C)c1c(C)c2[nH]c1cc1nc(cc3[nH]c4c(c5nc(c2-c2ccc(C(=O)OCC6OC(n7cc(C)c(=O)[nH]c7=O)CC6O)cc2)C(C)C5CCC(=O)OCC2OC(n5cc(C)c(=O)[nH]c5=O)CC2O)CC(=O)c4c3C)C(CC)=C1C (centres unmarked) [Compound 6, 17^3-thymidylyl-20-(4-thymidylyloxycarbonyl)phenyl-3-((1′-n-hexyloxy)ethyl)-3-devinyl-pyro pheophorbide] was tested, and the “in vitro therapeutic effect of PDT (percentage of control growth, FIG. 4)” value ([2]; 675 nm, 3.2 mW/cm^2, 0.1 μM, compared with unconjugated PLH-14 (Compound 5)) was “enhanced”.

With CCCCOC(C)c1c(C)c2cc3nc(c4c5[nH]c(cc6nc(cc1[nH]2)C(C)=C6CC)c(C)c5C(=O)N(CCCC)C4=O)C(CCC(=O)OCC1OC(n2cc(C)c(=O)[nH]c2=O)CC1O)C3C (centres unmarked) [Compound 8] the “in vitro therapeutic effect of PDT (relative growth rate, FIG. 5)” value ([2]; 703 nm, 3.2 mW/cm^2, 0.05 μM, compared with unconjugated 277-COOH (Compound 7)) was “enhanced”.

In the case of CC(=O)O[C@H]1C(=O)[C@@]2(C)[C@H]([C@H](OC(=O)c3ccccc3)[C@]3(O)C[C@H](OC(=O)[C@H](O)[C@@H](NC(=O)c4ccccc4)c4ccccc4)C(C)=C1C3(C)C)[C@]1(OC(C)=O)CO[C@@H]1C[C@@H]2O [paclitaxel], the “mechanism of cell death” value (PC3 cell line [3]) is reported as “apoptosis mechanism”.
